Experimental data taken from PubChem BioAssay (NCI).
“And” between values parts separate entries of the source, which are not always exact repeats. Equal entries are not always repeated.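 Five concentrations, 48 hours, 96-well plates. GI50 is the concentration that inhibits growth by half. TGI marks complete inhibition of growth.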

Tests used:
Assay in all cases: growth of human tumour cells (NCI), 48 h
NCI-H23 lung = tested on: NCI-H23 lung
SNB-75 CNS = tested on: SNB-75 CNS
SK-OV-3 ovarian = tested on: SK-OV-3 ovarian
HS 578T breast = tested on: HS 578T breast
IGROV1 ovarian = tested on: IGROV1 ovarian
MDA-MB-435 = tested on: MDA-MB-435
RXF 393 renal = tested on: RXF 393 renal
MDA-N = tested on: MDA-N
SW-620 colon = tested on: SW-620 colon
HCT-15 colon = tested on: HCT-15 colon
UO-31 renal = tested on: UO-31 renal
A498 renal = tested on: A498 renal
M14 melanoma = tested on: M14 melanoma
OVCAR-3 ovarian = tested on: OVCAR-3 ovarian
NCI/ADR-RES ovarian = tested on: NCI/ADR-RES ovarian
EKVX NSCLC = tested on: EKVX NSCLC
RPMI-8226 leukemia = tested on: RPMI-8226 leukemia

| Compound | TGI (NCI-H23 lung) | TGI (SNB-75 CNS) | TGI (SK-OV-3 ovarian) | TGI (HS 578T breast) | TGI (IGROV1 ovarian) | TGI (MDA-MB-435) | TGI (RXF 393 renal) | TGI (MDA-N) | TGI (SW-620 colon) | TGI (HCT-15 colon) | TGI (UO-31 renal) | TGI (A498 renal) | TGI (M14 melanoma) | GI50 (OVCAR-3 ovarian) | TGI (OVCAR-3 ovarian) | TGI (NCI/ADR-RES ovarian) | TGI (EKVX NSCLC) | TGI (RPMI-8226 leukemia) |
| --- | --- | --- | --- | --- | --- | --- | --- | --- | --- | --- | --- | --- | --- | --- | --- | --- | --- | --- |
| CC(=O)OC1OC(C2c3cccc(O)c3C(=O)c3c(O)cc(CO)cc32)C(O)C(O)C1O (centres undefined) | 11.3 µM and 13 µM | 23.5 µM and 16.3 µM | 18.3 µM and 90.8 µM | 7.38 µM and 7.12 µM | 20.8 µM and 21.1 µM | 11.6 µM and 14.3 µM | 29.8 µM and 55.5 µM | 13.5 µM and 8.28 µM | 10.8 µM and 19.3 µM | 9.33 µM and 11.2 µM | 22.5 µM and 21.3 µM | 26.4 µM | 24.4 µM and 24.8 µM | 9.16 µM and 3.51 µM | 22.4 µM and 12.1 µM | 44.7 µM and 28.1 µM | 36.8 µM and 26 µM |  |
| CC(O)/C=C/C1OC(=O)CC1Nc1ccc(C=O)cc1 (centres undefined) | > 100 µM | > 100 µM | > 100 µM | > 100 µM | > 100 µM | > 100 µM | > 100 µM | > 100 µM | > 100 µM | > 100 µM | > 100 µM | > 100 µM | 41.9 µM |  | > 100 µM | > 100 µM | > 100 µM | 90.9 µM |
| CC(C)C(=O)/C=C/c1ccc(Cl)cc1Cl | 26.8 µM | 27.7 µM | 33.7 µM | 22.2 µM | 28.4 µM | 10 µM | 22.2 µM | 7.06 µM | 7.92 µM | 25.2 µM | 23.5 µM | 31.8 µM | 20 µM |  | 16.1 µM | 54.6 µM | 31 µM | > 100 µM |
| Clc1ccc(C2=Cc3nc2c(-c2ccccc2)c2ccc([nH]2)c(-c2ccccc2)c2nc(c(-c4ccccc4)c4ccc([nH]4)c3-c3ccccc3)C=C2)cc1 | > 62.5 µM | > 62.5 µM | > 62.5 µM | > 62.5 µM | > 62.5 µM | > 62.5 µM | > 62.5 µM | > 62.5 µM | > 62.5 µM | > 62.5 µM | > 62.5 µM | > 62.5 µM | > 62.5 µM |  | > 62.5 µM | > 62.5 µM | > 62.5 µM | > 62.5 µM |
| CN1CCN(c2ccc3nc(-c4ccc5nc(CCCc6ccc(N(CCCl)CCCl)cc6)[nH]c5c4)[nH]c3c2)CC1 | > 100 µM | > 100 µM | > 100 µM | > 100 µM | > 100 µM | > 100 µM | > 100 µM | > 100 µM | > 100 µM | > 100 µM | > 100 µM | > 100 µM | > 100 µM |  |  | > 100 µM |  | > 100 µM |
| CC(=S)NC=C(C(N)=O)C(N)=O | > 100 µM | > 100 µM | > 100 µM | > 100 µM | > 100 µM | > 100 µM | > 100 µM | > 100 µM | > 100 µM | > 100 µM |  | > 100 µM | > 100 µM |  | > 100 µM | > 100 µM | > 100 µM | > 100 µM |
| N#CC(C#N)[C@@H]1CCC=C(Sc2ccccc2)[C@H]1Sc1ccccc1 | 20.9 µM | 17.9 µM | 16.3 µM | 26.6 µM | 13.6 µM | 4.53 µM | 4.84 µM | 4.41 µM |  | 5.66 µM | 17.6 µM | 26.9 µM | 4.95 µM |  | 12.8 µM | 8.37 µM | 15.4 µM |  |
